Source: patent US8618286B2, “Benzoxazines, benzothiazines, and related compounds having NOS inhibitory activity” (NeurAxon, Inc., priority 2008, dated 2013)
pIC50: −log10 of the molar value.

How the values were obtained:
[1] = target: Recombinant human inducible NOS (iNOS) (Homo sapiens (Human), UniProt P35228); test: Human iNOS enzyme assay (Protocol 1 or Protocol 2, radiometric); format: biochemical
Procedure: The human iNOS assay was carried by either one of the two protocols as described herein:
Recombinant human inducible NOS (iNOS) was produced in Baculovirus-infected Sf9 cells (ALEXIS). In a radiometric method, NO synthase activity was determined by measuring the conversion of [^3H]L-arginine to [^3H]L-citrulline. To measure iNOS, 10 μL of enzyme was added to 100 μL of 100 mM HEPES, pH=7.4, containing 1 mM CaCl2, 1 mM EDTA, 1 mM dithiothreitol, 1 μM FMN, 1 μM FAD, 10 μM tetrahydrobiopterin, 120 μM NADPH, and 100 nM CaM.
To measure enzyme inhibition, a 15 μL solution of a test substance was added to the enzyme assay solution, followed by a pre-incubation time of 15 min at RT. The reaction was initiated by addition of 20 μL L-arginine containing 0.25 μCi of [^3H] arginine/mL and 24 μM L-arginine. The total volume of the reaction mixture was 150 μL in every well. The reactions were carried out at 37° C. for 45 minutes, The reaction was stopped by adding 20 μL of ice-cold buffer containing 100 mM HEPES, 3 mM EGTA, 3 mM EDTA, pH=5.5. [^3H]L-citrulline was separated by DOWEX (ion-exchange resin DOWEX 50 W×8-400, SIGMA) and the DOWEX was removed by spinning at 12,000 g for 10 min in the centrifuge. An aliquot (70 μL) of the supernatant was added to 100 μL of scintillation fluid, and the samples were counted in a liquid scintillation counter (1450 Microbeta Jet, Wallac). Specific NOS activity was reported as the difference between the activity recovered from the test solution and that observed in a control sample containing 240 mM of the inhibitor L-NMMA. All assays were performed at least in duplicate. Standard deviations are 10% or less.
Primary stock solutions of each test compound were prepared in distilled water on the day of study to obtain a final concentration of 6 mM. For the determination of IC50 values, 11 test compound concentrations were prepared as 3-fold serial dilutions. Test compounds were tested in the iNOS assay at a concentration of 1000 μM to 0.0169 μM. The vehicle of the test compound or inhibitor, distilled water, was used as blank control. For non-specific activity, 100 μM L-NMMA was run in parallel as a control.
All incubations were performed in duplicate
The reaction mixture was prepared on ice by the addition of the following components to the appropriate well of a 1.0 mL 96-well polypropylene plate:
10 μL of test compound, reference inhibitor, or control (vehicle or L-NMMA) solution;
25 μL of Reaction Buffer (50 mM Tris-HCl, 6 μM BH4, 2 μM FMN, 2 μM FAD);
5 μL of 10 mM NADPH solution;
5 μL of 1 μM Calmodulin; and
The reaction mixture was pre-incubated at room temperature for 15 minutes. Following this pre-incubation, the reaction was initiated by the addition of 5 μL of the substrate L-arginine (1 μCi of [^3H]-L-Arginine+30 μM of unlabeled L-Arginine) to the reaction mixture. The total reaction volume was 60 μL. The assay plate containing the reaction mixtures was sealed and incubated at 37° C. for 30 minutes. At the end of this incubation period, 400 μL of ice-cold Stop Buffer (the EDTA in the Stop Buffer chelates all of the available calcium) was added to each well to stop the reaction. 100 μL of equilibrated resin pH 5.5 was added to each of the assay wells. The reaction samples were vortexed and transferred to spin cups, after-which they were centrifuged at 13,000 rpm for 30 sec. The spin cups were removed from the holder and […] (containing the unbound L-citrulline) were added to the appropriate wells of a 96-well liquid scintillation plate. 175 μL of scintillation fluid were also added to each well. The plate was sealed, and radioactivity was quantitated using a Microbeta liquid scintillation counter.
Data were analyzed using a Sigmoidal dose-response (variable slope) curve to determine the IC50 value of the test compound. Y=Bottom+(Top−Bottom)/(1+10^((Log IC50−X)*Hill Slope))

[2] = target: Nitric oxide synthase (endothelial, human recombinant) eNOS (Homo sapiens (Human), UniProt P29474); test: Human eNOS enzyme assay ([3H]-L-arginine to L-citrulline conversion); format: biochemical
Procedure: (§1) nNOS (Human), eNOS (Human) and iNOS (Human) Enzyme Assay
(§2) Primary stock solutions of test compounds at a concentration of 6 mM were prepared from the 2 to 5 mg powder. The primary stock solutions of each test compound were prepared freshly in distilled water on the day of study to obtain a final concentration of 6 mM. For determination of IC50 values, 12 test compound concentrations were prepared as 3-fold serial dilutions. Concentration range of test compound utilized for nNOS were 0.001 to 300 μM and for eNOS were 0.003 to 1000 μM. The vehicle of the test compound or inhibitor was used as blank control. For non-specific activity, 100 μM L-NMMA was used. Runs using the IC50 concentration of L-NAME were done in parallel as controls.
(§3) All incubations are performed in duplicate
(§4) The reaction mixture was prepared on ice by adding the following components with a micropipette to a polypropylene microcentrifuge tube: • 10 μL of test compound, inhibitor or control (vehicle or L-NMMA) solution; • 25 μL of Reaction Buffer {25 mM Tris-HCl, 0.6 μM BH4, 0.2 μM FMN, 0.2 μM FAD}; • 5 μL of 10 mM NADPH solution {1 mM} (freshly prepared in 10 mM Tris-HCl (pH 7.4); • 5 μL of 6 mM CaCl2 {600 W}; • 5 μL of 1 mM Calmodulin {100 W}; and • 5 μL of 0.02 μg/μL nNOS or 0.12 μg/μL eNOS.
(§5) The above reaction mixture was pre-incubated at room temperature for 15 mins.
(§6) The reaction was started by the addition of the substrate (in 5 μL containing 1 μCi of [^3H]-L-Arginine+2.5 μM of unlabeled L-Arginine) to the reaction mixture. Total reaction volume is 60 μL.
(§7) The reaction was mixed using a vortex mixer and incubate the above reaction mixture at 37° C. in an incubator for 30 minutes.
(§8) To stop the reaction, 400 μL of ice-cold Stop Buffer was added at the end of the incubation period.
(§9) The reaction was then mixed using a vortex mixer, and the reaction samples were transferred to spin cups, which were centrifuged using a microcentrifuge, at 13,000 rpm for 30 sec. at room temperature.
(§10) The spin cups were removed from the holder, 450 μL of eluate (containing the unbound L-citrulline) were transferred to scintillation vials. 3 mL of scintillation fluid were added and the radioactivity was quantified in a liquid scintillation counter.
(§11) Data was analyzed using a Sigmoidal dose-response (variable slope) curve to determine the IC50 value of the test compound. Y=Bottom+(Top−Bottom)/(1+10^((Log IC50−X)*Hill Slope))

[3] = target: Nitric oxide synthase (neuronal, human recombinant) nNOS (Homo sapiens (Human), UniProt P29475); test: Human nNOS enzyme assay ([3H]-L-arginine to L-citrulline conversion); format: biochemical; conditions: for Selectivity eNOS/nNOS: ratio of human eNOS IC50 to human nNOS IC50; for pIC50: recombinant human nNOS
Procedure: as §1, §2, §3, §4, §5, §6, §7, §8, §9, §10, §11

cardiogenic shock = conditions: human, randomized trial of 30 patients; reduced from 67%; cited from earlier work
migraine = conditions: human, single i.v. administration; cited from earlier work
persistent shock = conditions: human, up to 30 days; cited from earlier work
migraine attack = conditions: human, open pilot study; cited from earlier work

Row | SMILES | pIC50 [1] | pIC50 [2] | Selectivity eNOS/nNOS [3] | pIC50 [3] | patient mortality (cardiogenic shock) | response rate (migraine) | survival rate (persistent shock) | patients with a reduction in the frequency of migraine attack of 50% (migraine attack)
1 | CN(C)CCCN1CCSc2cc(NC(=N)c3cccs3)ccc21 [Compound 22, N-(4-(3-(Dimethylamino)propyl)-3,4-dihydro-2H-benzo[b][1,4]thiazin-7-yl)thiophene-2-carboximidamide] | 3.94 | 4.92 | 864 | 7.85 | – | – | – | –
2 | CNCCCN1CCSc2cc(NC(=N)c3cccs3)ccc21 [Compound 23, N-(4-(3-(methylamino)propyl)-3,4-dihydro-2H-benzo[b][1,4]thiazin-7-yl)thiophene-2-carboximidamide] | 3.76 | 4.73 | 664 | 7.55 | – | – | – | –
3 | CCNCCN1CCSc2ccc(NC(=N)c3cccs3)cc21 [Compound 24, N-(4-(2-(ethylamino)ethyl)-3,4-dihydro-2H-benzo[b][1,4]thiazin-6-yl)thiophene-2-carboximidamide] | 4.08 | 5.35 | 89 | 7.30 | – | – | – | –
4 | N=C(Nc1ccc2c(c1)N(C1CCNCC1)CCS2)c1cccs1 [Compound 29, N-(4-(piperidin-4-yl)-3,4-dihydro-2H-benzo[b][1,4]thiazin-6-yl)thiophene-2-carboximidamide] | 4.11 | 4.36 | 396 | 6.96 | – | – | – | –
5 | COC(=O)[C@@H](N)CCCNC(=N)N[N+](=O)[O-] [L-NAME, N^G-Nitro-L-arginine methyl ester] | – | – | – | – | 27% | – | – | –
6 | CN=C(N)NCCC[C@H](N)C(=O)O.Cl [L-NMMA, L-N^G methylarginine hydrochloride] | – | – | – | – | – | 67% | 72% | –
7 | C/C1=C2/[N-][C@H]([C@H](CC(N)=O)[C@@]2(C)CCC(=O)NC[C@@H](C)OP(=O)([O-])O[C@H]2[C@@H](O)[C@@H](n3cnc4cc(C)c(C)cc43)O[C@@H]2CO)[C@]2(C)N=C(/C(C)=C3N=C(/C=C4N=C1[C@@H](CCC(N)=O)C\4(C)C)[C@@H](CCC(N)=O)[C@]\3(C)CC(N)=O)[C@@H](CCC(N)=O)[C@]2(C)CC(N)=O.[Co+3].[OH-] [hydroxycobalamin] | – | – | – | – | – | – | – | 53%

Further compounds by rising pIC50 [1], results first:

Row | pIC50 [1] | pIC50 [2] | Selectivity eNOS/nNOS [3] | pIC50 [3] | SMILES | patient mortality (cardiogenic shock) | response rate (migraine) | survival rate (persistent shock) | patients with a reduction in the frequency of migraine attack of 50% (migraine attack)
8 | 3.46 | 5.07 | 107.2 | 7.10 | CNCCN1CCSc2ccc(NC(=N)c3cccs3)cc21 [Compound 28, N-(4-(2-(methylamino)ethyl)-3,4-dihydro-2H-benzo[b][1,4]thiazin-6-yl)thiophene-2-carboximidamide] | – | – | – | –
9 | 3.57 | 4.33 | 290 | 6.80 | CNCCN1CCSc2cc(NC(=N)c3ccco3)ccc21 [Compound 20, N-(4-(2-(methylamino)ethyl)-3,4-dihydro-2H-benzo[b][1,4]thiazin-7-yl)furan-2-carboximidamide] | – | – | – | –
10 | 3.87 | 4.02 | 676 | 6.85 | CN(C)CCN1CCSc2cc(NC(=N)c3ccco3)ccc21 [Compound 19, N-(4-(2-(dimethylamino)ethyl)-3,4-dihydro-2H-benzo[b][1,4]thiazin-7-yl)furan-2-carboximidamide] | – | – | – | –
11 | 4.18 | 4.46 | 268.4 | 6.89 | CN(C)CCN1CCSc2ccc(NC(=N)c3cccs3)cc21 [Compound 27, N-(4-(2-(dimethylamino)ethyl)-3,4-dihydro-2H-benzo[b][1,4]thiazin-6-yl)thiophene-2-carboximidamide] | – | – | – | –
12 | 4.22 | 5.07 | 56.5 | 6.82 | N=C(Nc1ccc2c(c1)N(CCNCCO)CCS2)c1cccs1 [Compound 26, N-(4-(2-(2-hydroxyethylamino)ethyl)-3,4-dihydro-2H-benzo[b][1,4]thiazin-6-yl)thiophene-2-carboximidamide] | – | – | – | –
13 | 4.30 | 5.00 | 71.4 | 6.85 | N=C(Nc1ccc2c(c1)SCCN2CCCN1CCCC1)c1cccs1 [Compound 21, N-(4-(3-(pyrrolidin-1-yl)propyl)-3,4-dihydro-2H-benzo[b][1,4]thiazin-7-yl)thiophene-2-carboximidamide] | – | – | – | –
14 | 4.36 | 4.74 | 90.5 | 6.70 | N=C(Nc1ccc2c(c1)N(CCN1CCCC1)CCS2)c1cccs1 [Compound 25, N-(4-(2-(pyrrolidin-1-yl)ethyl)-3,4-dihydro-2H-benzo[b][1,4]thiazin-6-yl)thiophene-2-carboximidamide] | – | – | – | –
